Test [1] deals with T1, Adenine phosphoribosyltransferase (Homo sapiens, UniProt P07741).
T1 sequence (P07741 whole entry): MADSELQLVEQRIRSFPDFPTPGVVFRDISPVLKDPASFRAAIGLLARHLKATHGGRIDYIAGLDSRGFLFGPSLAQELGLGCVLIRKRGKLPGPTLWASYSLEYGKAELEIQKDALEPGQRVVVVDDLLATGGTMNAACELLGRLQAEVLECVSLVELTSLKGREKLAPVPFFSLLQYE

Test [2] addresses T2, UMP-CMP kinase (Homo sapiens, UniProt P30085).
T2 sequence (P30085 whole entry): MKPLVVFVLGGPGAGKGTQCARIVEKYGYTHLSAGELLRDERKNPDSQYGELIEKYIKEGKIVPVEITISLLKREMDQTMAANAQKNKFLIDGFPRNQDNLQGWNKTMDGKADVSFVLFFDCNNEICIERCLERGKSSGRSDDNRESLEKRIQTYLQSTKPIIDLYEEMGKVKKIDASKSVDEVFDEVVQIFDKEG

The target in test [3] is Mitogen-activated protein kinase 14 (Homo sapiens, UniProt Q16539).
Test [4] has as its target Obg-like ATPase 1 (Homo sapiens, UniProt Q9NTK5).
Test [5] concerns the target Choline-phosphate cytidylyltransferase A (Homo sapiens, UniProt P49585).
The target in test [6] is Phosphatidylethanolamine-binding protein 1 (Homo sapiens, UniProt P30086).
Sequence of Phosphatidylethanolamine-binding protein 1 (P30086 whole entry): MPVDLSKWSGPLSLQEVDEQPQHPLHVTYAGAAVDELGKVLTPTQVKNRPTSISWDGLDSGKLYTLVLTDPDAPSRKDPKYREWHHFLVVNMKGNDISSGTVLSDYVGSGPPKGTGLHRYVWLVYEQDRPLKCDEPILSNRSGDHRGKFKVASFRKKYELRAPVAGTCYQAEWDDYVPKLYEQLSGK
Test [7] has as its target Membrane-associated progesterone receptor component 1 (Homo sapiens, UniProt O00264).
The target of test [8] is Serine/threonine-protein kinase 24 (Homo sapiens, UniProt Q9Y6E0).
Sequence of Serine/threonine-protein kinase 24 (Q9Y6E0 whole entry): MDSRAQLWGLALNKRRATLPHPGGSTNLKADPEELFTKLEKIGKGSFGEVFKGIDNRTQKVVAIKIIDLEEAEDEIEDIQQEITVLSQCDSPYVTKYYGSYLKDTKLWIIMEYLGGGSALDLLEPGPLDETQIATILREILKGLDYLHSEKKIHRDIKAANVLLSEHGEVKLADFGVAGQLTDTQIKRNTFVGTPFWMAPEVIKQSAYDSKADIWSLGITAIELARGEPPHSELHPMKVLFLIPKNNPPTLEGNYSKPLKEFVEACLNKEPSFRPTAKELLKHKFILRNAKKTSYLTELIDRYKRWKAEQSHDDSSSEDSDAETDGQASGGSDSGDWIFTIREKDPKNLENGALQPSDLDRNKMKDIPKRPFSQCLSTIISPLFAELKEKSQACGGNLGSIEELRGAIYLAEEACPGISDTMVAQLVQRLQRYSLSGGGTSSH
The target of test [9] is T3, Dual specificity protein kinase TTK (Homo sapiens, UniProt P33981).
T3 sequence (P33981 whole entry): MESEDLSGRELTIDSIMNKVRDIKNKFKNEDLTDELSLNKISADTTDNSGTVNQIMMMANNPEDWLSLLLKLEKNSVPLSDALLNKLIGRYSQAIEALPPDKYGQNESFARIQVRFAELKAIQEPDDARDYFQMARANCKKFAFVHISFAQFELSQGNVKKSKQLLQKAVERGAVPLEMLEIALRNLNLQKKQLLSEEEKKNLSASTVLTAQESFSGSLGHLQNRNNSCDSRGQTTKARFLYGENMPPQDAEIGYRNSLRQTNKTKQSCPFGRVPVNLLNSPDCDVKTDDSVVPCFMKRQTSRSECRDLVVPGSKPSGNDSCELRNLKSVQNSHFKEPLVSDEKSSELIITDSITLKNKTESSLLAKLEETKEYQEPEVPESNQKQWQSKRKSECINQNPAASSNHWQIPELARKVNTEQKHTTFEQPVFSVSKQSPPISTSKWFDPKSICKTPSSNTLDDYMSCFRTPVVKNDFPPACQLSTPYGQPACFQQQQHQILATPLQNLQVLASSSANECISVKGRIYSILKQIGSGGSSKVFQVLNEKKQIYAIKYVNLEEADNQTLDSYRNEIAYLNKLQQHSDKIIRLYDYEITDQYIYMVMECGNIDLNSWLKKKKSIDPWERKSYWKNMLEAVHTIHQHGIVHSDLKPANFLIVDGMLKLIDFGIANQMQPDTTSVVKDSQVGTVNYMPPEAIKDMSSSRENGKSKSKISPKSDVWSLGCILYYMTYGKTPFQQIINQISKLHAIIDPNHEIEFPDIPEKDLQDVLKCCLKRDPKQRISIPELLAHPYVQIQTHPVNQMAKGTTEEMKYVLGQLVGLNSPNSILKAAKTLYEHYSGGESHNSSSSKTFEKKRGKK

Test [10] deals with Dual specificity protein kinase CLK2 (Homo sapiens, UniProt P49760).
Sequence of Dual specificity protein kinase CLK2 (P49760 whole entry): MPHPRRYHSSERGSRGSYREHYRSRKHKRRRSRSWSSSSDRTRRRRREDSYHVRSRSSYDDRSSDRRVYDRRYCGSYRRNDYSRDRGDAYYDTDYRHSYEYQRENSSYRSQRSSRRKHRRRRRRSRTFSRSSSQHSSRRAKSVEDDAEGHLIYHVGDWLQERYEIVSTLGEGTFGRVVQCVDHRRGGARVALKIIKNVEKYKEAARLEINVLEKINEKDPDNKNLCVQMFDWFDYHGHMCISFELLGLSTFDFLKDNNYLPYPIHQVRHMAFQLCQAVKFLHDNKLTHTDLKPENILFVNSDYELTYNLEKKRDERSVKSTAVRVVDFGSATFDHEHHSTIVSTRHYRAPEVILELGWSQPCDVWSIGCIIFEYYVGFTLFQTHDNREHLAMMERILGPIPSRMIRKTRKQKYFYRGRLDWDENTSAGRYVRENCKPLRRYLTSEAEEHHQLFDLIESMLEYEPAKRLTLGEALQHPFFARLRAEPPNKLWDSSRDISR
Test [11] concerns the target Epidermal growth factor receptor (Homo sapiens, UniProt P00533).
Test [12] has as its target Ephrin type-A receptor 7 (Homo sapiens, UniProt Q15375).
Test [13] deals with Guanine nucleotide-binding protein G(i) subunit alpha-2 (Homo sapiens, UniProt P04899).
Sequence of Guanine nucleotide-binding protein G(i) subunit alpha-2 (P04899 whole entry): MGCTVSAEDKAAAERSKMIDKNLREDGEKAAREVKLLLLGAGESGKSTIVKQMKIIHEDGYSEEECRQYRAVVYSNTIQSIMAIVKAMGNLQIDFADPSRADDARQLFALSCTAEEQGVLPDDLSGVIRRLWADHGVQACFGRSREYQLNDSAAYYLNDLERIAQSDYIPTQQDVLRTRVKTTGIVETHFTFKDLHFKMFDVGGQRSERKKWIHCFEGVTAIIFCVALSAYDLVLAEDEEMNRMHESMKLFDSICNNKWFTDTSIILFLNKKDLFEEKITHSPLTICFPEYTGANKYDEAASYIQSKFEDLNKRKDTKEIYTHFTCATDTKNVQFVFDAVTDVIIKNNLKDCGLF
Test [14] addresses G protein-coupled receptor kinase 6 (Homo sapiens, UniProt P43250).
The target in test [15] is Protein kinase C theta type (Homo sapiens, UniProt Q04759).
Sequence of Protein kinase C theta type (Q04759 whole entry): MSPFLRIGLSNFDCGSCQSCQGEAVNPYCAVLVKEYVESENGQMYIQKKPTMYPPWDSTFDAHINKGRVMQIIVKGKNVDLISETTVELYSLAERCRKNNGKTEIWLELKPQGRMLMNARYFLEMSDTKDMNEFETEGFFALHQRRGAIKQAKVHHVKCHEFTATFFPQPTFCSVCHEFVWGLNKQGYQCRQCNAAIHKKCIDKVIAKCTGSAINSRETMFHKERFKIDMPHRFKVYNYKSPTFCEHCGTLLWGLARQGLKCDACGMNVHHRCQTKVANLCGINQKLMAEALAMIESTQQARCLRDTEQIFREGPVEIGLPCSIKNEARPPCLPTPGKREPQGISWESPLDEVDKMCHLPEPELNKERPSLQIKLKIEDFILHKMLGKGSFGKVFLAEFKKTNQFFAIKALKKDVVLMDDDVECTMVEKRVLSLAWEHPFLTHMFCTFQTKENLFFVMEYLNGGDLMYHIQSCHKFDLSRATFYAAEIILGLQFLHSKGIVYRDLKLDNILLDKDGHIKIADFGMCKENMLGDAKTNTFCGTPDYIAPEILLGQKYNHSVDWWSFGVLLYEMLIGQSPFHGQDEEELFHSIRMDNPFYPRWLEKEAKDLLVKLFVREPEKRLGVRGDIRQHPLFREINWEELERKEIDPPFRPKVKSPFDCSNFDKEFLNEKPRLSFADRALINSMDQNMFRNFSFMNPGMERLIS
In test [16] the target is Proto-oncogene tyrosine-protein kinase receptor Ret (Homo sapiens, UniProt P07949).
Test [17] deals with Dual specificity protein kinase CLK3 (Homo sapiens, UniProt P49761). The test is classed as subcellular, K-562, COLO 205, SK-N-BE(2) and MV-4-11, Cell lysate. The following applies: read-out: Kd apparent.
In test [18] the target is T4, Long-chain-fatty-acid--CoA ligase 5 (Homo sapiens, UniProt Q9ULC5).
T4 sequence (Q9ULC5 whole entry): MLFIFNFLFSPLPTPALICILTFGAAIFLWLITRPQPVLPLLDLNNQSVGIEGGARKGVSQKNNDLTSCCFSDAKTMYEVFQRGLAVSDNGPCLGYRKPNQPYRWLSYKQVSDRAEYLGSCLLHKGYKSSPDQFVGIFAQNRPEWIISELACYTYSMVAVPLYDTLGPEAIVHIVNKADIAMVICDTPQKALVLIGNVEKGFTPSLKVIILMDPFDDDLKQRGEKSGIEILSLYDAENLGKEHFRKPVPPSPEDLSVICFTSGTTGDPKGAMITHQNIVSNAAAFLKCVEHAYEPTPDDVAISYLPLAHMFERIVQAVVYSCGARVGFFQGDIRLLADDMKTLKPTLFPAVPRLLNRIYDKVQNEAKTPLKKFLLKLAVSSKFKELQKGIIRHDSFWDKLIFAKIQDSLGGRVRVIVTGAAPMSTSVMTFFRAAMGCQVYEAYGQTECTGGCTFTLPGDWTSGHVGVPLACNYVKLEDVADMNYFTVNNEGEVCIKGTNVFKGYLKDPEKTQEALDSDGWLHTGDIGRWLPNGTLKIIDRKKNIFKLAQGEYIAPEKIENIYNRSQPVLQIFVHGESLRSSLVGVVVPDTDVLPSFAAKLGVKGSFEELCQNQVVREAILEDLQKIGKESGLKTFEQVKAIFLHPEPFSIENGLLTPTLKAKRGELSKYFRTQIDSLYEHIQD

The target in test [19] is Cell division cycle 7-related protein kinase (Homo sapiens, UniProt O00311).
Test [20] has as its target Serine/threonine-protein kinase PLK1 (Homo sapiens, UniProt P53350).

Calls of active or inactive are those of the source. A value given as a limit tells only on which side of the number the result lay.
Note: in the data inactive means no Kd found up to 30 µM.

Sequence of Membrane-associated progesterone receptor component 1 (O00264 whole entry): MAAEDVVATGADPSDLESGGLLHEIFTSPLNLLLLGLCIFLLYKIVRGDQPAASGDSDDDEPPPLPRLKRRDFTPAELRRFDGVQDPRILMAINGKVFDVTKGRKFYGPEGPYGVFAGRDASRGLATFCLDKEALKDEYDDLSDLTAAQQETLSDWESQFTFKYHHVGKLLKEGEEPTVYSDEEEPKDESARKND
Sequence of G protein-coupled receptor kinase 6 (P43250 whole entry): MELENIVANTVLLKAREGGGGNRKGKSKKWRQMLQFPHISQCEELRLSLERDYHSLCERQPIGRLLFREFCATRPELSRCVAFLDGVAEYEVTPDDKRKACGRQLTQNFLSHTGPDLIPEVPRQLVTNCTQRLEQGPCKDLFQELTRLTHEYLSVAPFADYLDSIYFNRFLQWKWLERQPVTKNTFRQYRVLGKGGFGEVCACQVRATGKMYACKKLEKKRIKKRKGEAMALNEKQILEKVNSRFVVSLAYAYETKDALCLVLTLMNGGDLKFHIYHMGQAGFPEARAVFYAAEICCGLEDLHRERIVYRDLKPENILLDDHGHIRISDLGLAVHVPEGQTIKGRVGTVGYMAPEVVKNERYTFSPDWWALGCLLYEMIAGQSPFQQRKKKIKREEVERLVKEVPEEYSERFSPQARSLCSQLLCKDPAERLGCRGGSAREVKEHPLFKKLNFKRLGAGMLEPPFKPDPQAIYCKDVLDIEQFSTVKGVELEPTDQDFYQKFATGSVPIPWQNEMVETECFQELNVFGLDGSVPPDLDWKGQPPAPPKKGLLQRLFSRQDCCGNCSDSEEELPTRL
Sequence of Ephrin type-A receptor 7 (Q15375 whole entry): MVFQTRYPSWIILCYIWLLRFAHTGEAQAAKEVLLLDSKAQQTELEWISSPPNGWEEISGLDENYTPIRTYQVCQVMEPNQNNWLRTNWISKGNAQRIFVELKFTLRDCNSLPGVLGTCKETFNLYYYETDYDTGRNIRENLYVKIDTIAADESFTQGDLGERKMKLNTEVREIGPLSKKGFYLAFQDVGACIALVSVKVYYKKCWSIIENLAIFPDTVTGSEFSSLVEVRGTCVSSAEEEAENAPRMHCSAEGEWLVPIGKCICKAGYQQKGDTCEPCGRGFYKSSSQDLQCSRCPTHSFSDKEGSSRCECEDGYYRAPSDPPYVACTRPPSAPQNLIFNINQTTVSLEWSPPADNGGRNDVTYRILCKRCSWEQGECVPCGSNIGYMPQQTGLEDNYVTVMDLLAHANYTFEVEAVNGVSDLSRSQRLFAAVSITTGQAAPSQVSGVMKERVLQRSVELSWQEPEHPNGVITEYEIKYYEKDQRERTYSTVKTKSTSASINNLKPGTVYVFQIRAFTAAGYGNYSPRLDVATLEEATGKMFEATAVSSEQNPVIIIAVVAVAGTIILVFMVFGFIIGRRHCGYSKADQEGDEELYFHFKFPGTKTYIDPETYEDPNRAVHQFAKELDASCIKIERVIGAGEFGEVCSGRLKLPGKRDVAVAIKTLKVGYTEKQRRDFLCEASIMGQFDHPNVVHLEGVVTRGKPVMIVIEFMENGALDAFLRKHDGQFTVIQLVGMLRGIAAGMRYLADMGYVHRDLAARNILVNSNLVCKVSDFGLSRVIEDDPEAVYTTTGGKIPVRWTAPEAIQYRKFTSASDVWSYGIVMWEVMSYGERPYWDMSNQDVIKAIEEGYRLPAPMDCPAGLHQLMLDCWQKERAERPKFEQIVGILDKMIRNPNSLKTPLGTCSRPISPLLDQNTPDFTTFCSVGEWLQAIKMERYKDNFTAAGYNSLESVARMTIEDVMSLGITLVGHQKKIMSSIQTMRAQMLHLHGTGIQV
Sequence of Choline-phosphate cytidylyltransferase A (P49585 whole entry): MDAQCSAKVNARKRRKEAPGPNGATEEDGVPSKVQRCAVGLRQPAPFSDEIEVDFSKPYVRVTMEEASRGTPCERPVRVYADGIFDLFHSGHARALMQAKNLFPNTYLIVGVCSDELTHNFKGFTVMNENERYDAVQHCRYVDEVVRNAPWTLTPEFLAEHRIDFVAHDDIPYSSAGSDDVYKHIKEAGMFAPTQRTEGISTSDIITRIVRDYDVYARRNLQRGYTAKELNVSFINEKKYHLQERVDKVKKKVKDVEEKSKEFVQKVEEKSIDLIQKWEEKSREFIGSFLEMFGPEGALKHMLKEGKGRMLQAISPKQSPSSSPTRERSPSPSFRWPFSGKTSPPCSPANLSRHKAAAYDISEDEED
Sequence of Obg-like ATPase 1 (Q9NTK5 whole entry, looked up): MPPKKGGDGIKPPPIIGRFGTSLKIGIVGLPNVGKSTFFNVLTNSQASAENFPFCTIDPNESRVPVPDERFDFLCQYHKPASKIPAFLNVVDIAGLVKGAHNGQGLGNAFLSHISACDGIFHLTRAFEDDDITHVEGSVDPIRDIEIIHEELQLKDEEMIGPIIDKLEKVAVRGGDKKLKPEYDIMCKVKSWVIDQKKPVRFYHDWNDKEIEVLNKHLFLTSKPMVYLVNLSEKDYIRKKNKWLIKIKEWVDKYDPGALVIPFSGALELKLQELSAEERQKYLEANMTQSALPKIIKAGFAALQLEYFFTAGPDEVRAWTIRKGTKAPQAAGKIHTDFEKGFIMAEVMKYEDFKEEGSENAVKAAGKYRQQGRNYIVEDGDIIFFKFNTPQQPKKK

As for `Cc1nc(N)sc1-c1ccnc(Nc2ccc(N3CCOCC3)cc2)n1` [CYC-116], the Kd in [1], in test [2], in [3], in test [4], in test [5] and in test [6] was > 30 µM (inactive) each time. For the same compound, the Kd in [7] was > 30 µM (inactive); in [8] it was > 30 µM (inactive); in test [9], 0.016 µM.

Consider `COc1ccc(-c2ccc3c(N4CCOC[C@@H]4C)nc(N4CCOC[C@@H]4C)nc3n2)cc1CO` [AZD-8055], for which the Kd in test [1], in [10], in test [2], in test [11], in [12] and in [13] was > 30 µM (inactive) throughout. The Kd in test [14], in test [3], in [4], in test [6], in test [7] and in test [15] was > 30 µM (inactive) throughout. Moreover, the Kd in test [16], in test [8] and in test [9] was > 30 µM (inactive) throughout.

Regarding `COc1cc(N2CCC(N3CCN(C)CC3)CC2)ccc1Nc1ncnc(Nc2ccccc2S(=O)(=O)C(C)C)n1` [ASP-3026], the Kd in test [10] is > 30 µM (inactive); in test [11] it was 20.8 µM (active); in [12] it was > 30 µM (inactive); in test [13], > 30 µM (inactive); in test [14] it was > 30 µM (inactive); in test [3], > 30 µM (inactive). In addition, the Kd in test [5], in test [6], in [15], in test [16], in test [8] and in [9] was > 30 µM (inactive) in each case.

With `COCCNCc1ccc(-c2cc3nccc(Oc4ccc(NC(=S)NC(=O)Cc5ccc(F)cc5)cc4F)c3s2)nc1` [GLESATINIB], the Kd in [17], in test [18], in [1], in test [19], in test [10] and in [2] was > 30 µM (inactive) each time. The Kd in test [11], in test [13], in [14], in test [3], in test [4] and in test [5] was > 30 µM (inactive) in each case. Also, the Kd in test [6], in test [7], in test [20], in test [15], in test [16] and in test [8] was > 30 µM (inactive) in each case.

Regarding `COC(=O)[C@@]1(O)C[C@H]2O[C@]1(C)n1c3ccccc3c3c4c(c5c6ccccc6n2c5c31)C(=O)NC4` [K-252A], the Kd was > 30 µM (inactive) in [18]; 3.81 µM (active) in test [10]; > 30 µM (inactive) in [11]; > 30 µM (inactive) in [12]; > 30 µM (inactive) in test [3]; > 30 µM (inactive) in [7]. The Kd is > 30 µM (inactive) in test [8] and 0.03 µM in test [9].

For `Cn1cc(-c2ccc3nnc(C(F)(F)c4ccc5ncccc5c4)n3n2)cn1` [JNJ-38877605], the Kd in [17], in test [18], in [1], in test [19], in [10] and in test [11] was > 30 µM (inactive) each time. Besides, the Kd in test [12], in test [13], in test [14], in [3], in test [5] and in test [6] was > 30 µM (inactive) throughout. Also, the Kd in test [7], in test [20], in test [15] and in test [16] was > 30 µM (inactive) in each case.

Consider `O=c1sn(-c2cccc3ccccc23)c(=O)n1Cc1ccccc1` [TIDEGLUSIB], for which the Kd in test [18], in [1], in [19], in test [10], in test [11] and in [12] was > 30 µM (inactive) each time. In addition, the Kd in test [14], in test [3], in [4], in test [7], in test [15] and in test [16] was > 30 µM (inactive) in each case. Further, the Kd in test [8] and in test [9] was > 30 µM (inactive) throughout.

On to `CN(C)C(=O)c1cc2cnc(Nc3ccc(N4CCNCC4)cn3)nc2n1C1CCCC1` [RIBOCICLIB], for which the Kd in test [11], in test [12], in test [13], in test [14], in test [3] and in test [4] was > 30 µM (inactive) each time. For the same compound, the Kd in test [5], in test [6], in [7], in test [16], in [8] and in test [9] was > 30 µM (inactive) each time.

The values above are taken from ChEMBL document CHEMBL3991601, “The target landscape of clinical kinase drugs” (Science, 2017).
